Patent US9290451B2 (Hoffmann-La Roche Inc., priority 2011, dated 2016)

What was measured:
[1] = target: human CB2 receptors (Homo sapiens (Human), UniProt P34972); assay: cAMP assay, CHO cells expressing human CB2 receptors; assay type: cell-based; conditions: CHO cells expressing human CB2, cAMP; read-out: human CB2 EC50
Method in brief: (§1)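 In this cellular cAMP test, IBMX (1 mM) blocked phosphodiesterase during a 30-min, 30 °C compound exposure. Accumulated cAMP was measured by a lysis-based TR-FRET kit and interpolated from a standard curve to give EC50.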

[2] = target: human CB1 receptors (Homo sapiens (Human), UniProt P21554); assay: cAMP assay, CHO cells expressing human CB1 receptors; assay type: cell-based; conditions: CHO cells expressing human CB1, cAMP; read-out: human CB1 EC50
human CB1 receptors, sequence (P21554 whole entry): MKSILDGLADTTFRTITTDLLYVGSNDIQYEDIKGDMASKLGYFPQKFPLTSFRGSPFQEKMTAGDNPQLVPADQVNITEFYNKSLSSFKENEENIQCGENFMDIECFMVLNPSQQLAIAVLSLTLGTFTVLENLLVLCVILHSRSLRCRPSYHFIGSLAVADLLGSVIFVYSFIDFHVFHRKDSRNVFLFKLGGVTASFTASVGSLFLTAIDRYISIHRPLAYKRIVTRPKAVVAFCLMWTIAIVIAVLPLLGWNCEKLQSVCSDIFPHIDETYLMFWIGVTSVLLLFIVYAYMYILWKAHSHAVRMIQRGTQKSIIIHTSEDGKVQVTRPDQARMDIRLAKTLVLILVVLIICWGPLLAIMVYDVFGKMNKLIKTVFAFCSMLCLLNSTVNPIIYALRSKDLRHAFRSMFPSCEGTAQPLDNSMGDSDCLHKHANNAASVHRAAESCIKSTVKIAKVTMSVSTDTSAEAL
Method in brief: as §1

human CB2 receptors, sequence (P34972 whole entry): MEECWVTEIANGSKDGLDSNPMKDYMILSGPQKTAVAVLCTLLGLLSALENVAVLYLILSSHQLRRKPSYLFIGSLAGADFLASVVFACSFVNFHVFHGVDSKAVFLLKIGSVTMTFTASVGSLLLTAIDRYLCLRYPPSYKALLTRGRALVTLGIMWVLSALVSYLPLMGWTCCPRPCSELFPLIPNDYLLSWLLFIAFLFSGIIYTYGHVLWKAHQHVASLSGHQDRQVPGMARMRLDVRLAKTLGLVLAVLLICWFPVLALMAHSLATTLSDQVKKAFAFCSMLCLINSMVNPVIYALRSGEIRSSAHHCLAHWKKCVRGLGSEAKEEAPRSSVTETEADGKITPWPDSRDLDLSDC

Row | Structure (SMILES) | EC50 [1] [nM] | EC50 [2] [nM]
1 | CC(C)(NC(=O)c1ccc(C(F)(F)F)c(OCC2CC2)n1)c1nccs1 [Example 121, 6-Cyclopropylmethoxy-5-trifluoromethyl-pyridine-2-carboxylic acid (1-methyl-1-thiazol-2-yl-ethyl)-amide] | 111 | 1350
2 | CNC(=O)C(C)(C)NC(=O)c1ccc(C2CCCC2)c(OCC2CC2)n1 [Example 40, 5-Cyclopentyl-6-cyclopropylmethoxy-pyridine-2-carboxylic acid (1-methyl-1-methylcarbamoyl-ethyl)-amide] | 30.8 | > 10000
3 | CNC(=O)[C@@H](NC(=O)c1ccc(C2CC2)c(OCc2ccccn2)n1)C(C)(C)C [Example 201, (S)-5-Cyclopropyl-N-(3,3-dimethyl-1-(methylamino)-1-oxobutan-2-yl)-6-(pyridin-2-ylmethoxy)picolinamide] | 26.7 | > 10000
4 | CC(C)(NC(=O)c1ccc(C2CCCO2)c(-c2cccc(Cl)c2)n1)c1nccs1 (centres unmarked) [Example 127, 6-(3-Chloro-phenyl)-5-(tetrahydro-furan-2-yl)-pyridine-2-carboxylic acid (1-methyl-1-thiazol-2-yl-ethyl)-amide] | 224 | > 10000
5 | CC(C)(C)NC(=O)c1ccc(C2CC2)c(OCC2CCCO2)n1 (centres unmarked) [Example 369, 5-Cyclopropyl-6-(tetrahydro-furan-2-ylmethoxy)-pyridine-2-carboxylic acid tert-butylamide] | 12 | > 10000
6 | COC(=O)C(C)(C)NC(=O)c1ccc(N2CCCC2)c(OCC2CC2)n1 [Example 27, 2-[(6-Cyclopropylmethoxy-5-pyrrolidin-1-yl-pyridine-2-carbonyl)-amino]-2-methyl-propionic acid methyl ester] | 4.6 | > 10000
7 | CC(C)C[C@H](NC(=O)c1ccc(C(F)(F)F)c(OCC2CC2)n1)C(N)=O [Example 118, 6-Cyclopropylmethoxy-5-trifluoromethyl-pyridine-2-carboxylic acid ((S)-1-carbamoyl-3-methyl-butyl)-amide] | 13.4 | 1550
8 | CC(C)CC(NC(=O)c1ccc(N2CC(F)(F)C2)c(OCC2CC2)n1)c1ncccn1 (centres unmarked) [Example 339, 6-Cyclopropylmethoxy-5-(3,3-difluoro-azetidin-1-yl)-pyridine-2-carboxylic acid (3-methyl-1-pyrimidin-2-yl-butyl)-amide] | 64.9 | > 10000
9 | CNC(=O)[C@@H](NC(=O)c1cccc(-c2cccc(Cl)c2)n1)C(C)(C)C [Example 192, (S)-6-(3-Chlorophenyl)-N-(3,3-dimethyl-1-(methylamino)-1-oxobutan-2-yl)picolinamide] | 64.2 | 1540
10 | Cc1nc([C@H](CC2CC2)NC(=O)c2ccc(C3CC3)c(OCC3CC3)n2)no1 [Example 163, 5-Cyclopropyl-6-cyclopropylmethoxy-pyridine-2-carboxylic acid [(S)-2-cyclopropyl-1-(5-methyl-[1,2,4]oxadiazol-3-yl)-ethyl]-amide] | 14.5 | > 10000
11 | CC(C)C[C@H](NC(=O)c1ccc(C2CC2)c(S(=O)(=O)CC(C)C)n1)C(N)=O [Example 351, 5-Cyclopropyl-6-(2-methyl-propane-1-sulfonyl)-pyridine-2-carboxylic acid ((S)-1-carbamoyl-3-methyl-butyl)-amide] | 39.9 | > 10000
12 | CN(C)C(=O)[C@H](NC(=O)c1ccc(C2CC2)c(OCC2CC2)n1)c1ccccc1 [Example 227, 5-Cyclopropyl-6-cyclopropylmethoxy-pyridine-2-carboxylic acid ((−)-dimethylcarbamoyl-phenyl-methyl)-amide] | 40.8 | > 10000
13 | Cc1nc([C@H](CC2CC2)NC(=O)c2ccc(C)c(OCC3CC3)n2)no1 [Example 57, 6-Cyclopropylmethoxy-5-methyl-pyridine-2-carboxylic acid [(S)-2-cyclopropyl-1-(5-methyl-[1,2,4]oxadiazol-3-yl)-ethyl]-amide] | 319 | > 10000
14 | Cc1nc([C@H](CC2CC2)NC(=O)c2cccc(-c3ccc(F)c(Cl)c3)n2)no1 [Example 343, 6-(3-Chloro-4-fluoro-phenyl)-pyridine-2-carboxylic acid [(S)-2-cyclopropyl-1-(5-methyl-[1,2,4]oxadiazol-3-yl)-ethyl]-amide] | 3.5 | > 10000
15 | Cc1nc(C(C)(C)NC(=O)c2ccc(C3(O)CCC3)c(OCC3CC3)n2)no1 [Example 160, 6-Cyclopropylmethoxy-5-(1-hydroxy-cyclobutyl)-pyridine-2-carboxylic acid [1-methyl-1-(5-methyl-[1,2,4]oxadiazol-3-yl)-ethyl]-amide] | 124 | > 10000
16 | CCC(CC)(NC(=O)c1ccc(C(F)(F)F)c(OCC2CCOCC2)n1)C(=O)N(C)C [Example 262, 6-(Tetrahydro-pyran-4-ylmethoxy)-5-trifluoromethyl-pyridine-2-carboxylic acid (1-dimethylcarbamoyl-1-ethyl-propyl)-amide] | 74.8 | > 10000

Row | Structure (SMILES) | EC50 [1] [nM] | EC50 [2] [nM]
17 | CCC(CC)(NC(=O)c1ccc(C2CC2)c(OCC2CCCO2)n1)C(=O)OC (centres unmarked) [Example 233, 2-{[5-Cyclopropyl-6-(tetrahydro-furan-2-ylmethoxy)-pyridine-2-carbonyl]-amino}-2-ethyl-butyric acid methyl ester] | 0.1 | 71
18 | CC(C)C[C@H](CO)NC(=O)c1ccc(C2CC2)c(OCC2CC2)n1 [Example 174, (R)-5-Cyclopropyl-6-(cyclopropylmethoxy)-N-(1-hydroxy-4-methylpentan-2-yl)picolinamide] | 32 | > 10000
19 | CC(C)C[C@H](NC(=O)c1ccc(C2(O)COC2)c(OCC2CC2)n1)C(N)=O [Example 150, 6-Cyclopropylmethoxy-5-(3-hydroxy-oxetan-3-yl)-pyridine-2-carboxylic acid ((S)-1-carbamoyl-3-methyl-butyl)-amide] | 157 | > 10000
20 | CC(C)(NC(=O)c1ccc(N2CCCC2=O)c(OCC2CC2)n1)c1ncco1 [Example 61, 6-Cyclopropylmethoxy-5-(2-oxo-pyrrolidin-1-yl)-pyridine-2-carboxylic acid (1-methyl-1-oxazol-2-yl-ethyl)-amide] | 1480 | > 10000
21 | Cc1nc(C(C)(NC(=O)c2ccc(N3CC(F)(F)C3)c(OCC3CC3)n2)C2CC2)no1 (centres unmarked) [Example 340, 6-Cyclopropylmethoxy-5-(3,3-difluoro-azetidin-1-yl)-pyridine-2-carboxylic acid [1-cyclopropyl-1-(5-methyl-[1,2,4]oxadiazol-3-yl)-ethyl]-amide] | 5.7 | > 10000
22 | CC(C)(NC(=O)c1ccc(C2CCOC2)c(-c2cccc(Cl)c2)n1)c1nccs1 (centres unmarked) [Example 101, 6-(3-Chloro-phenyl)-5-(tetrahydro-furan-3-yl)-pyridine-2-carboxylic acid (1-methyl-1-thiazol-2-yl-ethyl)-amide] | 102 | > 10000
23 | CC(C)(NC(=O)c1ccc(N2CC(F)(F)C2)c(OCC2CC2)n1)c1nccs1 [Example 69, 6-Cyclopropylmethoxy-5-(3,3-difluoro-azetidin-1-yl)-pyridine-2-carboxylic acid (1-methyl-1-thiazol-2-yl-ethyl)-amide] | 6 | 380
24 | Cc1nc(C(C)(C)NC(=O)c2cccc(-c3ccc(Cl)c(F)c3)n2)no1 [Example 267, 6-(4-Chloro-3-fluoro-phenyl)-pyridine-2-carboxylic acid [1-methyl-1-(5-methyl-[1,2,4]oxadiazol-3-yl)-ethyl]-amide] | 26.4 | > 10000
25 | Cc1nc([C@@H](NC(=O)c2ccc(C3CC3)c(OCC3CC3)n2)C2CC2)no1 [Example 198, (+)-5-Cyclopropyl-6-cyclopropylmethoxy-pyridine-2-carboxylic acid [cyclopropyl-(5-methyl-[1,2,4]oxadiazol-3-yl)-methyl]-amide] | 6.8 | > 10000
26 | CCC(CC)(NC(=O)c1ccc(C2CC2)c(OCC[C@H](O)C(F)(F)F)n1)C(=O)NC [Example 320, 5-Cyclopropyl-6-((S)-4,4,4-trifluoro-3-hydroxy-butoxy)-pyridine-2-carboxylic acid (1-ethyl-1-methylcarbamoyl-propyl)-amide] | 4.4 | 323
27 | CCC(CC)(NC(=O)c1ccc(C2CC2)c(OCC2CCOCC2)n1)C(=O)O [Example 337, 2-{[5-Cyclopropyl-6-(tetrahydro-pyran-4-ylmethoxy)-pyridine-2-carbonyl]-amino}-2-ethyl-butyric acid] | 34.5 | 475
28 | CS(=O)(=O)CC[C@H](NC(=O)c1ccc(N2CC(F)(F)C2)c(OCC2CC2)n1)C(N)=O [Example 345, 6-Cyclopropylmethoxy-5-(3,3-difluoro-azetidin-1-yl)-pyridine-2-carboxylic acid ((S)-1-carbamoyl-3-methanesulfonyl-propyl)-amide] | 295 | > 10000
29 | CC(C)CC(NC(=O)c1ccc(N2CC(F)(F)C2)c(OCC2CC2)n1)c1cccnc1 (centres unmarked) [Example 325, 6-Cyclopropylmethoxy-5-(3,3-difluoro-azetidin-1-yl)-pyridine-2-carboxylic acid (3-methyl-1-pyridin-3-yl-butyl)-amide] | 17.5 | > 10000
30 | CC(C)(NC(=O)c1ccc(C2CC2)c(OCC2CC2)n1)c1nccs1 [Example 44, 5-Cyclopropyl-6-cyclopropylmethoxy-pyridine-2-carboxylic acid (1-methyl-1-thiazol-2-yl-ethyl)-amide] | 13.5 | 1610
31 | CC(C)(NC(=O)c1ccc(N2CCCC2)c(OCC2CC2)n1)C1=NCCO1 [Example 63, 6-Cyclopropylmethoxy-5-pyrrolidin-1-yl-pyridine-2-carboxylic acid [1-(4,5-dihydro-oxazol-2-yl)-1-methyl-ethyl]-amide] | 112 | > 10000
